The text below walks through data of BindingDB's records for doi:10.1007/s002100000299 (University of Oslo, 2001).

“And” between values parts separate entries of the source, which are not always exact repeats. Equal entries are not always repeated.

Chain of 5-hydroxytryptamine receptor 4 (Q13639 whole entry): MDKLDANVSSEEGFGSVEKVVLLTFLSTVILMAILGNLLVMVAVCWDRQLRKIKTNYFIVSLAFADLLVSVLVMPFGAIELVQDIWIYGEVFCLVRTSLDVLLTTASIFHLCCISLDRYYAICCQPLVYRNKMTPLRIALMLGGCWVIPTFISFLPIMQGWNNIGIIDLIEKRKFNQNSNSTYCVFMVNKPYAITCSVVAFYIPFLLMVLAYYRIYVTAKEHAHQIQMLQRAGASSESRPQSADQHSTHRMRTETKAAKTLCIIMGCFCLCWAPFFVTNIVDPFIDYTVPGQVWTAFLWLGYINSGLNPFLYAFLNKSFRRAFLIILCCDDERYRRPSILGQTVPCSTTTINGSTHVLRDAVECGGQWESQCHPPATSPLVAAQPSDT

The test has as its target 5-hydroxytryptamine receptor 4 (Homo sapiens, UniProt Q13639).
Take `NCCc1c[nH]c2ccc(C(N)=O)cc12` [[3H]-5-carboxamidotryptamine]: the Ki – broadly, the equilibrium dissociation constant of an inhibitor or competing ligand from its target – was above 10000 nM.
For the compound `Cn1cc(C(=O)OCC2CCN(CCNS(C)(=O)=O)CC2)c2ccccc21` [GR 113808], the Ki was 0.079 nM and 0.05 nM.
In the case of `O=C(OCCN1CCCCC1)c1c[nH]c2ccccc12` [CAS_135938-17-9] it was 2 nM and 1.3 nM.
In the case of `COc1ccc2[nH]cc(CCN)c2c1` [tryptamine, 5-Methoxy] it was 316 nM and 251 nM; in that of `CN1C2CCC1CC(OC(=O)c1c[nH]c3ccccc13)C2` (stereo not given), 158 nM and 79.4 nM.
